Laboratory results as given in ChEMBL document CHEMBL4842362, “From virtual screening hits targeting a cryptic pocket in BACE-1 to a nontoxic brain permeable multitarget anti-Alzheimer lead with disease-modifying and cognition-enhancing effects” (Eur J Med Chem, 2021).
Converted amounts (≈) assume the structure as drawn. The source made the active and inactive calls. The calls are words filed in the database; no cut-off is given here.

Experiments:
[1] = Toxicity in SAMP8 mouse assessed as toxic effects at 2 mg/kg, po for 4 weeks; type: organism-based; settings: in vivo, 672 h
[2] = tested on: Mus musculus; experiment: Modulation of oxidative stress in SAMP8 mouse assessed as increase in heme oxygenase 1 (Hmox1) gene expression in hippocampus tissue at 2 mg/kg, po measured after 4 weeks by RT-PCR analysis; type: functional, organism-based
[3] = Kinetic solubility of the compound in DMSO/PBS buffer measured after 2 hrs by nephalometric analysis; type: physicochemical; settings: DMSO/PBS buffer, read-out: Kinetic_solubility
[4] = tested on: HT-22; experiment: Neuroprotective activity against glutamate induced neuronal death in mouse HT-22 cells assessed as increase in cell viability at 1 to 25 uM by MTT assay; type: functional, cell-based; settings: dose 1-25 µM
[5] = target: T1, Acetylcholinesterase (Homo sapiens, UniProt P22303)
Description: Inhibition of human recombinant AChE using acetylthiocholine iodide as a substrate preincubated for 20 mins followed by substrate addition by spectrophotometric analysis

[6] = Neurotoxicity in mouse HT-22 cells assessed as decrease in cell viability at up to 25 uM by MTT assay; type: cell-based
[7] = tested on: Mus musculus; experiment: Cognitive enhancing effect in SAMP8 mouse assessed as improvement of short term retrieval by measuring discrimination index at 2 mg/kg, po administered for 4 weeks followed by 10 mins acquisition trail and measured after 2 hrs by novel object recognition test; type: functional, organism-based
[8] = tested on: Mus musculus; experiment: Effect on neuroinflammation in SAMP8 mouse assessed as reduction in Cxcl10 gene expression hippocampus tissue at 2 mg/kg, po measured after 4 weeks by RT-PCR analysis; type: functional, organism-based
[9] = tested on: Mus musculus; experiment: Cognitive enhancing effect in SAMP8 mouse assessed as reversal of spatial memory impairment by measuring discrimination index at 2 mg/kg, po administered for 4 weeks by object location test; type: functional, organism-based
[10] = target: T2, Cholinesterase (Homo sapiens, UniProt P06276); experiment: Potency index, ratio of rhein-huprine hybrid IC50 to test compound IC50 for inhibition of human serum BChE using butyrylthiocholine iodide as a substrate preincubated for 20 mins followed by substrate addition by spectrophotometric analysis; type: cell-free
[11] = target: Microtubule-associated protein tau (Homo sapiens) (UniProt P10636); experiment: Inhibition of tau aggregation (unknown origin) in Escherichia coli BL21 (DE3) at 10 uM incubated overnight by thioflavin S based fluorescence analysis relative to control
[12] = tested on: Mus musculus; experiment: Effect on neuroinflammation in SAMP8 mouse assessed as decrease in IL-1 beta gene expression hippocampus tissue at 2 mg/kg, po measured after 4 weeks by RT-PCR analysis; type: functional, organism-based
[13] = target: Amyloid-beta precursor protein (Homo sapiens) (UniProt P05067); experiment: Inhibition of amyloid beta (1 to 42) (unknown origin) aggregation in Escherichia coli BL21 (DE3) at 10 uM incubated overnight by thioflavin S based fluorescence analysis relative to control
[14] = target: T2, Cholinesterase; experiment: Potency index, ratio of donepezil IC50 to test compound IC50 for inhibition of human serum BChE using butyrylthiocholine iodide as a substrate preincubated for 20 mins followed by substrate addition by spectrophotometric analysis; type: cell-free
[15] = tested on: Mus musculus; experiment: Effect on amyloid pathology in hippocampal tissue of SAMP8 mouse assessed as increase in Adam10 gene expression at 2 mg/kg, po measured after 4 weeks by RT-PCR analysis; type: functional, organism-based
[16] = tested on: Mus musculus; experiment: In vivo inhibition of BACE-1 in hippocampal tissue of SAMP8 mouse assessed as reduction in sAPPbeta levels at 2 mg/kg, po measured after 4 weeks by Western blot analysis; type: functional, organism-based; settings: Hippocampus
[17] = tested on: Mus musculus; experiment: In vivo inhibition of GSK3 beta in SAMP8 mouse assessed as reduction in tau phosphorylation at Ser 404 residue at 2 mg/kg, po measured after 4 weeks by western blot analysis; type: functional, organism-based
[18] = Acute toxicity in zebra fish embryos assessed as lethality measured every 24 hrs for 72 hrs; parameters: species or system Danio rerio; settings: zebrafish
[19] = tested on: Mus musculus; experiment: Cognitive enhancing effect in SAMP8 mouse assessed as improvement of long term retrieval by measuring discrimination index at 2 mg/kg, po administered for 4 weeks followed by 10 mins acquisition trail and measured after 24 hrs by novel object recognition test; type: functional, organism-based
[20] = tested on: Mus musculus; experiment: Effect on neuroinflammation in SAMP8 mouse assessed as decrease in IL-6 gene expression hippocampus tissue at 2 mg/kg, po measured after 4 weeks by RT-PCR analysis; type: functional, organism-based
[21] = target: Beta-secretase 1 (Homo sapiens, UniProt P56817); experiment: Inhibition of human recombinant BACE-1 expressed in Escherichia coli using panvera peptide as a substrate incubated for 1 hr by fluorescence analysis
[22] = target: T2, Cholinesterase
Description: Inhibition of human serum BChE using butyrylthiocholine iodide as a substrate preincubated for 20 mins followed by substrate addition by spectrophotometric analysis

[23] = target: T1, Acetylcholinesterase; experiment: Potency index, ratio of rhein-huprine hybrid IC50 to test compound IC50 for inhibition of human recombinant AChE using acetylthiocholine iodide as a substrate preincubated for 20 mins followed by substrate addition by spectrophotometric analysis
[24] = tested on: Mus musculus; experiment: Modulation of oxidative stress in SAMP8 mouse assessed as increase in cox-2 gene expression in hippocampus tissue at 2 mg/kg, po measured after 4 weeks by RT-PCR analysis; type: functional, organism-based
[25] = tested on: Mus musculus; experiment: In vivo inhibition of BACE-1 in hippocampal tissue of SAMP8 mouse assessed as increase in sAPP alpha levels at 2 mg/kg, po measured after 4 weeks by western blot analysis; type: functional, organism-based; settings: Hippocampus
[26] = target: T2, Cholinesterase; experiment: Potency index, ratio of huprine-Y IC50 to test compound IC50 for inhibition of human serum BChE using butyrylthiocholine iodide as a substrate preincubated for 20 mins followed by substrate addition by spectrophotometric analysis; type: cell-free
[27] = tested on: Mus musculus; experiment: Effect on amyloid pathology in hippocampal tissue of SAMP8 mouse assessed as decrease in Bace-1 gene expression at 2 mg/kg, po measured after 4 weeks by RT-PCR analysis; type: functional, organism-based
[28] = tested on: Mus musculus; experiment: Effect on neuroinflammation in SAMP8 mouse assessed as decrease in TNF-alpha gene expression hippocampus tissue at 2 mg/kg, po measured after 4 weeks by RT-PCR analysis; type: functional, organism-based
[29] = tested on: Mus musculus; experiment: Effect on amyloid pathology in hippocampal tissue of SAMP8 mouse assessed as increase in insulin-degrading enzyme (Ide) gene expression at 2 mg/kg, po measured after 4 weeks by RT-PCR analysis; type: functional, organism-based
[30] = Toxicity in SAMP8 mouse assessed as mortality at 2 mg/kg, po for 4 weeks; type: organism-based; settings: in vivo, 672 h
[31] = tested on: Mus musculus; experiment: Effect on synaptic plasticity in SAMP8 mouse assessed as increase in SYN protein levels in hippocampus tissue at 2 mg/kg, po measured after 4 weeks by western blot analysis; type: functional, organism-based
[32] = tested on: Mus musculus; experiment: Effect on amyloid pathology in hippocampal tissue of SAMP8 mouse assessed as increase in neprilysin (Nep) gene expression at 2 mg/kg, po measured after 4 weeks by RT-PCR analysis; type: functional, organism-based
[33] = Permeability of the compound in PBS/EtOH by PAMPA-BBB assay; type: ADME; settings: read-out: permeability
[34] = target: T1, Acetylcholinesterase; experiment: Potency index, ratio of donepezil IC50 to test compound IC50 for inhibition of human recombinant AChE using acetylthiocholine iodide as a substrate preincubated for 20 mins followed by substrate addition by spectrophotometric analysis
[35] = Antioxidant activity assessed as free radical scavenging activity at 500 uM incubated for 30 mins under dark condition by DPPH assay; type: functional
[36] = tested on: Mus musculus; experiment: Effect on synaptic plasticity in SAMP8 mouse assessed as increase in PSD95 protein levels in hippocampus tissue at 2 mg/kg, po measured after 4 weeks by western blot analysis; type: functional, organism-based

T1 sequence (P22303 whole entry): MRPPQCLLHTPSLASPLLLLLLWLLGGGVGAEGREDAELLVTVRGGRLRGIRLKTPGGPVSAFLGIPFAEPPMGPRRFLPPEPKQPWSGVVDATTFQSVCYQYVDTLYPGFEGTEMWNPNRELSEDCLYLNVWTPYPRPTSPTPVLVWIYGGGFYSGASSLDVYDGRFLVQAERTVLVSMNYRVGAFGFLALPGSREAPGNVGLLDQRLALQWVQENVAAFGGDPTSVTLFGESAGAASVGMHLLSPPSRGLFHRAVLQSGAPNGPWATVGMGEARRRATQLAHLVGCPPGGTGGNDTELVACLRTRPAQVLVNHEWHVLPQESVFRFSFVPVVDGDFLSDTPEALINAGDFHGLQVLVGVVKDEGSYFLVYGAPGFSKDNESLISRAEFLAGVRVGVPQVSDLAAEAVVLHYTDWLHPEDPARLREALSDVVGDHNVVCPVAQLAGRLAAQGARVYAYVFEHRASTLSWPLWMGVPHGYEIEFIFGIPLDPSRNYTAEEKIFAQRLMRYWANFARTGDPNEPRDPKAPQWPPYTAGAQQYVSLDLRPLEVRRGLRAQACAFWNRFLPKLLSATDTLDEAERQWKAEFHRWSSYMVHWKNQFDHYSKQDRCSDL
T2 sequence (P06276 whole entry): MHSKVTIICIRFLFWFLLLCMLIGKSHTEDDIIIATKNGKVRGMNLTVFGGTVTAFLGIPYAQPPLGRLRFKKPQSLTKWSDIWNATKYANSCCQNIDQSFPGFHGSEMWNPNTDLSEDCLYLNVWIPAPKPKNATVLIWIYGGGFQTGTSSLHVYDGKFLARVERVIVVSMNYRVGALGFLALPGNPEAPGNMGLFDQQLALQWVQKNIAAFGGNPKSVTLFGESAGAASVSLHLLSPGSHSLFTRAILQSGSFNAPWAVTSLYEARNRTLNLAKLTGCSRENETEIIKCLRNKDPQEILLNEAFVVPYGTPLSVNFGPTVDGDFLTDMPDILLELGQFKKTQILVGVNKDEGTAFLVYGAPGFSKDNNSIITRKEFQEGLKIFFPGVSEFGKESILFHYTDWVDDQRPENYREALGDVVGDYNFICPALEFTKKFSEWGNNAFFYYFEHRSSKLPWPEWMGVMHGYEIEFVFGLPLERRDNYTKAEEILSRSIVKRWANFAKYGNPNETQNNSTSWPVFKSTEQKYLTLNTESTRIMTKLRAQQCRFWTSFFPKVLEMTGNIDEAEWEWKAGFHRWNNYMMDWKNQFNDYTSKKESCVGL
Sequence of Microtubule-associated protein tau (Homo sapiens) (P10636 whole entry): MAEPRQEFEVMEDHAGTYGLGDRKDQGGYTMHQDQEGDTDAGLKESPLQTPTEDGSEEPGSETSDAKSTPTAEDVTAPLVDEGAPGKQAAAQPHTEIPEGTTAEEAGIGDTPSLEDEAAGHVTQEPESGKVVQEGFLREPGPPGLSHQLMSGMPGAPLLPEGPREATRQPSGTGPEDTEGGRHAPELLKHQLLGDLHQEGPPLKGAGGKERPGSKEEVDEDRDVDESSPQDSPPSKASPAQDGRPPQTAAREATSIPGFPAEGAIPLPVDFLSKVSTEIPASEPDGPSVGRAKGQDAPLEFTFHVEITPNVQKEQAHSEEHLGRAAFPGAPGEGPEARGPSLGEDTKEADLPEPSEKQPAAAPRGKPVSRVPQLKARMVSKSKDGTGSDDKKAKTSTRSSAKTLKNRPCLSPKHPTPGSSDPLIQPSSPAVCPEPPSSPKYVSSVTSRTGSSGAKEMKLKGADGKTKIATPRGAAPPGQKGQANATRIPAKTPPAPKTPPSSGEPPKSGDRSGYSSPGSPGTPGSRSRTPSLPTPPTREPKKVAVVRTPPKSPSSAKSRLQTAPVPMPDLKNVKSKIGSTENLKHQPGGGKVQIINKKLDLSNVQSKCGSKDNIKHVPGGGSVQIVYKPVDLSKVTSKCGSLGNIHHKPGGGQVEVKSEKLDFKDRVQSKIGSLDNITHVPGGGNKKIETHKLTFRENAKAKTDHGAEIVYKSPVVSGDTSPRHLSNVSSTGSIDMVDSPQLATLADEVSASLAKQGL
Sequence of Beta-secretase 1 (P56817 whole entry): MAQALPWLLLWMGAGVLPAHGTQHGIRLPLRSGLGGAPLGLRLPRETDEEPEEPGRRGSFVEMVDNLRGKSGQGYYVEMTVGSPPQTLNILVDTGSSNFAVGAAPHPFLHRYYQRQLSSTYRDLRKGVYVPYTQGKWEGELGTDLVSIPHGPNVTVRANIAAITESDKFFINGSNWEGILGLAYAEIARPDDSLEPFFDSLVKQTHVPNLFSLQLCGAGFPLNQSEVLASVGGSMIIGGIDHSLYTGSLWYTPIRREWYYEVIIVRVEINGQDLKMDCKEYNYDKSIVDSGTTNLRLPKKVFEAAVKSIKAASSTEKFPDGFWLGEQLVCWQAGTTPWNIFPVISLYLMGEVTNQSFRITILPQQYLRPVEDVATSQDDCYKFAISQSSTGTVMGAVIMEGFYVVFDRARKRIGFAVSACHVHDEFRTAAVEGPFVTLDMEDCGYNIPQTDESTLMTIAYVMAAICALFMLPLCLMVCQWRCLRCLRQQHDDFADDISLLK
Sequence of Amyloid-beta precursor protein (Homo sapiens) (P05067 whole entry): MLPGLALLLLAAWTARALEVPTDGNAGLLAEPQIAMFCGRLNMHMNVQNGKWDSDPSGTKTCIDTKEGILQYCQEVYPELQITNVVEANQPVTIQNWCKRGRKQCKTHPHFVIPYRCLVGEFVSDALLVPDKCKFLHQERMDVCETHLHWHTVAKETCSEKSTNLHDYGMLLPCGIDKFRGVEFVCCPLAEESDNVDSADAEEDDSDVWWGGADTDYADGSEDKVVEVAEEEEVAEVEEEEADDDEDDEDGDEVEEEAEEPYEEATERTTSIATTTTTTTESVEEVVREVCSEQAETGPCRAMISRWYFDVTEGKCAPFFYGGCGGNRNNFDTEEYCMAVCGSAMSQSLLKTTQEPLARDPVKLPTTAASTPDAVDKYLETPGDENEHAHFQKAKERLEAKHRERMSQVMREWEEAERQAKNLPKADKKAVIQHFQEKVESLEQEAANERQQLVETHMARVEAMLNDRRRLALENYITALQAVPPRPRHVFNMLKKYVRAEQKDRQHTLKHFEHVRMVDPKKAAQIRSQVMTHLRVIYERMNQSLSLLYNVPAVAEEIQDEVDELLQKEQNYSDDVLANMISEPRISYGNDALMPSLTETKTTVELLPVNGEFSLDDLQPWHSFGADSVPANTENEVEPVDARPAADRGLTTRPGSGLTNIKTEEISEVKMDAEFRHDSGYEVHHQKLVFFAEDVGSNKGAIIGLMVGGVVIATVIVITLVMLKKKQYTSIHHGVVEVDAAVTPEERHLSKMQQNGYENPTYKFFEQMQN

For CC1=CC2Cc3nc4cc(Cl)ccc4c(NCCCCCCCCCNC(=O)c4cc(O)cc(O)c4)c3C(C1)C2 (stereo unspecified), the Activity [1] was “Non-Toxic”, the Activity [2] was “Active” and the solubility kinetic at 2 h [3] was 10.8 µg/mL (≈ 19.2 µM). For the same compound, the Activity [4] was “inactive”, the IC50 [5] was 2.57 nM and the Activity [6] was “Non-Toxic”. For the same compound, the Activity [7] was “Active”, the Activity [8] was “Active” and the Activity [9] was “Active”. The Ratio IC50 [10] was 7, the inhibition [11] was 65.8% and the Activity [12] was “Active”. For the same compound, the inhibition [13] was 49.5%, the Ratio IC50 [14] was 79 and the Activity [15] was “Active”. The Activity [16] was “Active”, the inhibition [17] was “Active” and the LC50 at 72 h [18] was greater than 100000 nM. The Activity [19] was “Active”, the Activity [20] was “Active” and the IC50 [21] was 2710 nM. The IC50 [22] was 43 nM, the Ratio IC50 [23] was less than 9 and the Activity [24] was “inactive”. The Activity [25] was “Active”, the Ratio IC50 [26] was 2 and the Activity [27] was “Active”. For the same compound, the Activity [28] was “Active”, the Activity [29] was “inactive” and the Activity [30] was “Non-Toxic”. For the same compound, the Activity [31] was “Active”, the Activity [32] was “Active” and the Papp [33] was 9.4 ×10⁻⁶ cm/s. The Ratio IC50 [34] was less than 65, the Activity [35] was “inactive” and the Activity [36] was “Active”.
